Results reported in patent publication US10844077B2, “Thiazolyl-containing compounds for treating proliferative diseases” (Dana-Farber Cancer Institute, Inc., priority 2014, dated 2020).
“And” between values parts separate entries of the source, which are not always exact repeats. Equal entries are not always repeated.

Tests used:
kinases in BCWM.1 cells [1] = target: kinases in BCWM.1 cells (Homo sapiens, UniProt Q00534); experiment: KINATIV assay of compounds I-3 and I-9, lysate directly labeled with ATP-biotin probe (no GF); format: cell-based; settings: CDK6; Lys2; 1 μM; no GF
Protocol: (§1) The cells were harvested and lysed. […] Bound kinases were identified and quantitated by ACTIVX as described in Patricelli et al., Biochemistry, 2007, 46(2): 350-358. The compounds were tested in duplicates against duplicate or quadruplicate control samples.

kinases in BCWM.1 cells [2] = target: kinases in BCWM.1 cells (Homo sapiens, UniProt Q5TCX8); experiment: as above; format: cell-based; settings: MLK4; Lys2; 1 μM; no GF
Protocol: as §1

kinases in BCWM.1 cells [3] = target: kinases in BCWM.1 cells (Homo sapiens, UniProt Q06187); experiment: as above; format: cell-based; settings: BTK; Activation Loop; 1 μM; no GF
Protocol: as §1

kinases in BCWM.1 cells [4] = target: kinases in BCWM.1 cells (Homo sapiens, UniProt P24941); experiment: as above; format: cell-based; settings: CDK2; Lys2; 1 μM; no GF
Protocol: as §1

kinases in BCWM.1 cells [5] = target: kinases in BCWM.1 cells (Homo sapiens, UniProt Q14680); experiment: as above; format: cell-based; settings: MELK; Lys2; 1 μM; no GF
Protocol: as §1

kinases in BCWM.1 cells [6] = target: kinases in BCWM.1 cells (Homo sapiens, UniProt Q8NB16); experiment: as above; format: cell-based; settings: MLKL; Lys1; 1 μM; no GF
Protocol: as §1

kinases in BCWM.1 cells [7] = target: kinases in BCWM.1 cells (Homo sapiens, UniProt P42685); experiment: as above; format: cell-based; settings: FRK; Activation Loop; 1 μM; no GF
Protocol: as §1

kinases in BCWM.1 cells [8] = target: kinases in BCWM.1 cells (Homo sapiens, UniProt P78368); experiment: as above; format: cell-based; settings: CK1g2; Lys2; 1 μM; no GF
Protocol: as §1

kinases in BCWM.1 cells [9] = target: kinases in BCWM.1 cells (Homo sapiens, UniProt Q16659); experiment: as above; format: cell-based; settings: Erk3; Lys2; 1 μM; no GF
Protocol: as §1

kinases in BCWM.1 cells [10] = target: kinases in BCWM.1 cells (Homo sapiens, UniProt Q8IU85); experiment: as above; format: cell-based; settings: CaMKld; Lys1; 1 μM; no GF
Protocol: as §1

kinases in BCWM.1 cells [11] = target: kinases in BCWM.1 cells (Homo sapiens, UniProt O14757); experiment: as above; format: cell-based; settings: CHK1; Lys2; 1 μM; no GF
Protocol: as §1

kinases in BCWM.1 cells [12] = target: kinases in BCWM.1 cells (Homo sapiens, UniProt P45985); experiment: as above; format: cell-based; settings: MAP2K4; Lys2; 1 μM; no GF
Sequence of kinases in BCWM.1 cells (Homo sapiens, UniProt P45985) (P45985 2-399 limits assumed): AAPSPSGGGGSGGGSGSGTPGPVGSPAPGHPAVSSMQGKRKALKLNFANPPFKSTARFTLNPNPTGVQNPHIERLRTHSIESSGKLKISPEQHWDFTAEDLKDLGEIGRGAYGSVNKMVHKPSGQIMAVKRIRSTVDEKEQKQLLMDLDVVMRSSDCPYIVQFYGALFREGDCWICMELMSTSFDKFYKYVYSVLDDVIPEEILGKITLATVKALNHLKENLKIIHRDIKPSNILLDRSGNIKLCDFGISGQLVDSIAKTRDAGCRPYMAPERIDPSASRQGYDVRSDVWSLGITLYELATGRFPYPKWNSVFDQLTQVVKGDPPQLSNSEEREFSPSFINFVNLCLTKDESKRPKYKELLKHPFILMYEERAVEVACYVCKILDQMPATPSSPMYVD
Protocol: as §1

kinases in BCWM.1 cells [13] = target: kinases in BCWM.1 cells (Homo sapiens, UniProt P00533); experiment: as above; format: cell-based; settings: EGFR; Lys1; 1 μM; no GF
Sequence of kinases in BCWM.1 cells (Homo sapiens, UniProt P00533) (P00533 25-1210 limits assumed): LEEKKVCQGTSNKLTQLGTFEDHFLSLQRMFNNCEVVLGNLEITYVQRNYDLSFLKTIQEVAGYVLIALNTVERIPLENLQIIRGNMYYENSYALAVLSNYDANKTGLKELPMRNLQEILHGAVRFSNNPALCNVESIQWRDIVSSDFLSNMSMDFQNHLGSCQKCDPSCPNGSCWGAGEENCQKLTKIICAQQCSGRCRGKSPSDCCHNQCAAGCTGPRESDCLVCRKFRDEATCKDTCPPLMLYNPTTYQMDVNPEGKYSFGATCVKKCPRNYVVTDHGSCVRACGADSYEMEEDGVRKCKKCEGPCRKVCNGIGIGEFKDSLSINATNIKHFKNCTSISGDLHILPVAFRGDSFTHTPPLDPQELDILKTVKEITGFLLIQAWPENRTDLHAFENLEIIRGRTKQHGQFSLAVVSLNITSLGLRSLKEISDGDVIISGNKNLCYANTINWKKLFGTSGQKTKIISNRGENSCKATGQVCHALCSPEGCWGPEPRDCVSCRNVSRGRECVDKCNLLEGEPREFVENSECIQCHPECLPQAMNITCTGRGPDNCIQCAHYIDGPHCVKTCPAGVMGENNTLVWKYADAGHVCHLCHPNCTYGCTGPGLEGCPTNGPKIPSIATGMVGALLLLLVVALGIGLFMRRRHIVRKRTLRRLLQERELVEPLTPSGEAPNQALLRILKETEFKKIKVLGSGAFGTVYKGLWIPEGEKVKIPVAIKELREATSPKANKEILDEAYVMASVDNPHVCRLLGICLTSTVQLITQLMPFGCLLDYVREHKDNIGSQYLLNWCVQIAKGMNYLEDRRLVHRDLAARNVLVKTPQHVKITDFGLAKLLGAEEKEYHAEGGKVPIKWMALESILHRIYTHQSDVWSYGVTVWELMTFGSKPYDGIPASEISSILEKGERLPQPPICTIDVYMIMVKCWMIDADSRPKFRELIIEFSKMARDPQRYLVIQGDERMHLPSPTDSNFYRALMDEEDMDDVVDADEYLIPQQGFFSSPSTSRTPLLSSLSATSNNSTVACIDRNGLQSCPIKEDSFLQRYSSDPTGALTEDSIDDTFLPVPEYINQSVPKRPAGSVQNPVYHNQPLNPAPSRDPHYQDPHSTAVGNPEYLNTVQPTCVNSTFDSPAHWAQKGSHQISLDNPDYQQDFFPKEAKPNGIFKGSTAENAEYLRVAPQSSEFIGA
Protocol: as §1

kinases in BCWM.1 cells [14] = target: kinases in BCWM.1 cells (Homo sapiens, UniProt P41240); experiment: as above; format: cell-based; settings: CSK; Activation Loop; 1 μM; no GF
Sequence of kinases in BCWM.1 cells (Homo sapiens, UniProt P41240) (P41240 2-450 limits assumed): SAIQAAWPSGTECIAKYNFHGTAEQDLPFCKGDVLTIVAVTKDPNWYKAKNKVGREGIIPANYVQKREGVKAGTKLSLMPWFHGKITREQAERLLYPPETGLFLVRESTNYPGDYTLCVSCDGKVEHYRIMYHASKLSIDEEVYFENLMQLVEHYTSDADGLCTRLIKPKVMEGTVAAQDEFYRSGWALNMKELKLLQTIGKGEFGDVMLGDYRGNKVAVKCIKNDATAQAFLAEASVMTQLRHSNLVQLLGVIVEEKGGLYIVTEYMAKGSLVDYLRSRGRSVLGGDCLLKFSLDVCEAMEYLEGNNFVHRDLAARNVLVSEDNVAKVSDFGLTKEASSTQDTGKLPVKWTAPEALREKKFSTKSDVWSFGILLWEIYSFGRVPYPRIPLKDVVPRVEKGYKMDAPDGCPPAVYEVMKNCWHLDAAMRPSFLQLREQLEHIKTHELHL
Protocol: as §1

kinases in BCWM.1 cells [15] = target: kinases in BCWM.1 cells (Homo sapiens, UniProt Q13164); experiment: as above; format: cell-based; settings: Erk5; Lys2; 1 μM; no GF
Sequence of kinases in BCWM.1 cells (Homo sapiens, UniProt Q13164) (Q13164 2-816 limits assumed): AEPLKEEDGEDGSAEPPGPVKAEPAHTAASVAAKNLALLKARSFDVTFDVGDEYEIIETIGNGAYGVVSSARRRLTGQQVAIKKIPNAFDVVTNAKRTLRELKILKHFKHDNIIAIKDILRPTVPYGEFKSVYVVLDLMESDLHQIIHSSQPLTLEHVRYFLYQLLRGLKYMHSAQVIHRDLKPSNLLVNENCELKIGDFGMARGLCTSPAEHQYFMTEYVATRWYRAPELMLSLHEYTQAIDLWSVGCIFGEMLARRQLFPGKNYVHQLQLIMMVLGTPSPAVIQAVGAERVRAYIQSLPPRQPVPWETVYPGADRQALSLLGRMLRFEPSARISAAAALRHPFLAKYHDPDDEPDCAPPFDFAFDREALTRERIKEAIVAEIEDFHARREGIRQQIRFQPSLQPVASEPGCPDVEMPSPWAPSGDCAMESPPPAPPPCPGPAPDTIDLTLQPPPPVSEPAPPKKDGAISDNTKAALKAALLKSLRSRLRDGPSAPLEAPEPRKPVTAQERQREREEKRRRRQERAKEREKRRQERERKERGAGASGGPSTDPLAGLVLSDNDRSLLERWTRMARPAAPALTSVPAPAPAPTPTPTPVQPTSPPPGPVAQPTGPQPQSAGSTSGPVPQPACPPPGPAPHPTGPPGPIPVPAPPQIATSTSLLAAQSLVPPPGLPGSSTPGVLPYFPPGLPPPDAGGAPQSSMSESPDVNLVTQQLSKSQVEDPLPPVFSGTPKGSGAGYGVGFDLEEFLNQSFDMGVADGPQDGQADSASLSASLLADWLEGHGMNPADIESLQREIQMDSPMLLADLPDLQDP
Protocol: as §1

kinases in BCWM.1 cells [16] = target: kinases in BCWM.1 cells (Homo sapiens, UniProt O14965); experiment: as above; format: cell-based
Protocol: as §1

kinases in BCWM.1 cells [17] = target: kinases in BCWM.1 cells (Homo sapiens, UniProt Q13188); experiment: as above; format: cell-based; settings: MST2; Lys1; 1 μM; no GF
Protocol: as §1

kinases in BCWM.1 cells [18] = target: kinases in BCWM.1 cells (Homo sapiens, UniProt Q96RR4); experiment: as above; format: cell-based; settings: CaMKK2; Lys2; 1 μM; no GF
Protocol: as §1

kinases in BCWM.1 cells [19] = target: kinases in BCWM.1 cells (Homo sapiens, UniProt Q13233); experiment: as above; format: cell-based; settings: MAP3K1; Lys2; 1 μM; no GF
Sequence of kinases in BCWM.1 cells (Homo sapiens, UniProt Q13233) (Q13233 2-1512 limits assumed): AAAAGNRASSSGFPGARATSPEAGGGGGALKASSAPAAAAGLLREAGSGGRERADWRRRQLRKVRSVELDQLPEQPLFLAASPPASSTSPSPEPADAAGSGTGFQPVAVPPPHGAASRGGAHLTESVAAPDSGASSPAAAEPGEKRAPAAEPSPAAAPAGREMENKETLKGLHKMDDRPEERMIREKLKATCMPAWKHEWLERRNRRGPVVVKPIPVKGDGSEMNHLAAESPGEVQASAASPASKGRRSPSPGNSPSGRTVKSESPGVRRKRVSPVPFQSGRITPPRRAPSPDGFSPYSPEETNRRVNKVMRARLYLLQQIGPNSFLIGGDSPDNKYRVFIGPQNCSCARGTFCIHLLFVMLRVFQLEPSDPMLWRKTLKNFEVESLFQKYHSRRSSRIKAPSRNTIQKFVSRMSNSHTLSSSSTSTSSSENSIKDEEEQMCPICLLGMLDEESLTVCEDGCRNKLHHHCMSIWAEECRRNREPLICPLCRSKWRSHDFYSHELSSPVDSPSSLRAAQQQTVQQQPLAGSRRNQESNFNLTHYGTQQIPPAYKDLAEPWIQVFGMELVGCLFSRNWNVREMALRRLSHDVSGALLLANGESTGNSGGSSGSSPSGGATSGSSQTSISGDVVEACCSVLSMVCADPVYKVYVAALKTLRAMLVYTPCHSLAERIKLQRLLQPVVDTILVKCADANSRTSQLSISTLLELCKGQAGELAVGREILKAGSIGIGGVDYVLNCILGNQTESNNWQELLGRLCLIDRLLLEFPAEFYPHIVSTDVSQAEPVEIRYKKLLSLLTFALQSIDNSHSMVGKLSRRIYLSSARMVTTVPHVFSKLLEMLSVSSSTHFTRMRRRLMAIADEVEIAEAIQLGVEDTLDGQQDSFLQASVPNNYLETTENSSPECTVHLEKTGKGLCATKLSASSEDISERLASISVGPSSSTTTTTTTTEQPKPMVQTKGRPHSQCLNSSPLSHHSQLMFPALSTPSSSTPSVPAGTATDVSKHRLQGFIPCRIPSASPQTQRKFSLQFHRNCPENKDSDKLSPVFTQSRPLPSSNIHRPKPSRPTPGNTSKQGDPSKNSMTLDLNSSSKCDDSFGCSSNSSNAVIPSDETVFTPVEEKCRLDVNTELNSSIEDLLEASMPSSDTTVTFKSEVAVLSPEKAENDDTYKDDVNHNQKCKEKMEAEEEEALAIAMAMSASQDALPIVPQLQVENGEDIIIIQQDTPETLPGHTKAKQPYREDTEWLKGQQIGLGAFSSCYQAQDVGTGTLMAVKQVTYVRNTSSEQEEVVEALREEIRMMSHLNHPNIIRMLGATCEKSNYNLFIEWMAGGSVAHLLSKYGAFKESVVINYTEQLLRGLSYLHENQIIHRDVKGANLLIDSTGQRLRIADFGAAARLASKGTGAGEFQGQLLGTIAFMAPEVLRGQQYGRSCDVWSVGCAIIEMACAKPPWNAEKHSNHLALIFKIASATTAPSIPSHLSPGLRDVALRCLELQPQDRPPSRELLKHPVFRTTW
Protocol: as §1

PFTAIRE1 = PFTAIRE1 (Homo sapiens (Human), UniProt O94921)
Sequence of PFTAIRE1 (O94921 whole entry, looked up): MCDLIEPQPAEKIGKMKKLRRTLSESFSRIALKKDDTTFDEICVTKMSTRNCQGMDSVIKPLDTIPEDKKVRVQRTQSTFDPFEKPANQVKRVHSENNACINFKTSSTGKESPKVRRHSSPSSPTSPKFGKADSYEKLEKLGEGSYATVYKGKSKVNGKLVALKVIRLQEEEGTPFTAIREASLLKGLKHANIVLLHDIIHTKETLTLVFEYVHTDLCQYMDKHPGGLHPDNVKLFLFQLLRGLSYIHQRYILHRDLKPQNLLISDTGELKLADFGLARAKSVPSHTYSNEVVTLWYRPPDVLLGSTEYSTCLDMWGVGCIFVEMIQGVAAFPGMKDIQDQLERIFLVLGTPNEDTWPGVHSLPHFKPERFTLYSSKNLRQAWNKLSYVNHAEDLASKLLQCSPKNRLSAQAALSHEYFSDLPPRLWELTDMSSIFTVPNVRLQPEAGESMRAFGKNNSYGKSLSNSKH
Protocol: The cells were harvested and lysed. The lysates were directly labeled with an ATP-biotin probe. Bound kinases were identified and quantitated by ACTIVX as described in Patricelli et al., Biochemistry, 2007, 46(2): 350-358. The compounds were tested in duplicates against duplicate or quadruplicate control samples.

kinases in BCWM.1 cells [20] = target: kinases in BCWM.1 cells (Homo sapiens, UniProt P41743); experiment: KINATIV assay of compounds I-3 and I-9, lysate directly labeled with ATP-biotin probe (no GF); format: cell-based; settings: PKCi; Lys1; 1 μM, 90 min; no GF
Protocol: as §1

kinases in BCWM.1 cells [21] = target: kinases in BCWM.1 cells (Homo sapiens, UniProt Q9Y2K2); experiment: as above; format: cell-based; settings: QSK; Lys2; 1 μM, 90 min; no GF
Protocol: as §1

kinases in BCWM.1 cells [22] = target: kinases in BCWM.1 cells (Homo sapiens, UniProt P51956); experiment: as above; format: cell-based; settings: NEK3; Activation Loop; 1 μM, 90 min; no GF
Protocol: as §1

kinases in BCWM.1 cells [23] = target: kinases in BCWM.1 cells (Homo sapiens, UniProt P78356); experiment: as above; format: cell-based; settings: PIP4K2B; ATP; 1 μM, 90 min; no GF
Protocol: as §1

kinases in BCWM.1 cells [24] = target: kinases in BCWM.1 cells (Homo sapiens, UniProt Q8TCG2); experiment: as above; format: cell-based; settings: PI4K2B; ATP; 1 μM, 90 min; no GF
Protocol: as §1

kinases in BCWM.1 cells [25] = target: kinases in BCWM.1 cells (Homo sapiens, UniProt O94806); experiment: as above; format: cell-based; settings: PKD3; Lys1; 1 μM, 90 min; no GF
Protocol: as §1

kinases in BCWM.1 cells [26] = target: kinases in BCWM.1 cells (Homo sapiens, UniProt Q16513); experiment: as above; format: cell-based; settings: PKN2; Lys2; 1 μM, 90 min; no GF
Protocol: as §1

kinases in BCWM.1 cells [27] = target: kinases in BCWM.1 cells (Homo sapiens, UniProt Q02156); experiment: as above; format: cell-based; settings: PKCe; Lys2; 1 μM, 90 min; no GF
Protocol: as §1

SMILES: C=CC(=O)N1CC[C@H](Nc2nccc(Nc3ncc(C(=O)Nc4c(C)cccc4C)s3)n2)C1 [Example I-3]
- % change of MS signal compared to control sample (kinases in BCWM.1 cells [1]): 12.4% and 3.6%
- % change of MS signal compared to control sample (kinases in BCWM.1 cells [2]): −3.8% and −11.8%
- % change of MS signal compared to control sample (kinases in BCWM.1 cells [3]): 94.7% and 95.2%
- % change of MS signal compared to control sample (kinases in BCWM.1 cells [4]): 3.6% and 1.2%
- % change of MS signal compared to control sample (kinases in BCWM.1 cells [5]): −12.1% and −10.6%
- % change of MS signal compared to control sample (kinases in BCWM.1 cells [6]): −5.6% and −4.6%
- % change of MS signal compared to control sample (kinases in BCWM.1 cells [7]): 92.4% and 95.8%
- % change of MS signal compared to control sample (kinases in BCWM.1 cells [8]): −3.7% and −4.5%
- % change of MS signal compared to control sample (kinases in BCWM.1 cells [9]): 23.2% and 23.8%
- % change of MS signal compared to control sample (kinases in BCWM.1 cells [10]): −0.4% and −5%
- % change of MS signal compared to control sample (kinases in BCWM.1 cells [11]): 9.7% and 5.6%
- % change of MS signal compared to control sample (kinases in BCWM.1 cells [12]): −3.9% and 1.1%
- % change of MS signal compared to control sample (kinases in BCWM.1 cells [13]): 20% and 17%
- % change of MS signal compared to control sample (kinases in BCWM.1 cells [14]): 36% and 60.3%
- % change of MS signal compared to control sample (kinases in BCWM.1 cells [15]): 3% and 8.3%
- % change of MS signal compared to control sample (kinases in BCWM.1 cells [16]): 12.7%
- % change of MS signal compared to control sample (kinases in BCWM.1 cells [17]): −12.1% and −18%
- % change of MS signal compared to control sample (kinases in BCWM.1 cells [18]): −2.1% and 1.7%
- % change of MS signal compared to control sample (kinases in BCWM.1 cells [19]): 22.5% and 18.8%

SMILES: C=CC(=O)N1CC[C@@H](Nc2nccc(Nc3ncc(C(=O)Nc4c(C)cccc4C)s3)n2)C1 [Example I-4]
- % change of MS signal compared to control sample (PFTAIRE1): 15.3% and 6.3%

SMILES: CCC(=O)N1CC[C@H](Nc2nccc(Nc3ncc(C(=O)Nc4c(C)cccc4C)s3)n2)C1 [Example I-9]
- % change of MS signal compared to control sample (kinases in BCWM.1 cells [20]): 16.5%
- % change of MS signal compared to control sample (kinases in BCWM.1 cells [21]): −1.8%
- % change of MS signal compared to control sample (kinases in BCWM.1 cells [22]): −21.2%
- % change of MS signal compared to control sample (kinases in BCWM.1 cells [23]): 17.6%
- % change of MS signal compared to control sample (kinases in BCWM.1 cells [24]): 2.6%
- % change of MS signal compared to control sample (kinases in BCWM.1 cells [25]): −15.2%
- % change of MS signal compared to control sample (kinases in BCWM.1 cells [26]): −4.5%
- % change of MS signal compared to control sample (kinases in BCWM.1 cells [27]): −38.2%
